Consider seven molecules from DBAASP.

Holding throughout (experiment): ≥ marks a high value that may be exact or a test limit, other limits are often not marked, values filed in µg/mL are converted to µM
For assay [1], the system named is Staphylococcus aureus NBRC 13276.
In assay [2] the test system is Pseudomonas aeruginosa NBRC 13275.
Assay [3] relates to Escherichia coli DH5alpha.
In assay [4] the test system is Batrachochytrium dendrobatidis.
Assay [5] relates to Klebsiella pneumoniae ATCC 700603.
In assay [6] the test system is Escherichia coli ATCC 25922.
For assay [7], the system named is Cryptococcus neoformans var. grubii H99.
In assay [8] the test system is Staphylococcus aureus JE2.
A further assay has as its system Escherichia coli K-12.
For assay [9], the system named is Candida albicans ATCC 90028.
Assay [10] has as its system Staphylococcus aureus ATCC 43300.
Assay [11] relates to Pseudomonas aeruginosa ATCC 27853.
The test system of assay [12] is Acinetobacter baumannii ATCC 19606.
The test system of assay [13] is Staphylococcus epidermidis ATCC 12228.
The subject of assay [14] is Lacticaseibacillus rhamnosus 7469.
Assay [15] deals with Candida parapsilosis CGMCC 2.3989.
Assay [16] concerns Staphylococcus aureus ATCC 29213.
Assay [17] has as its system Lactiplantibacillus plantarum 8014.
In assay [18] the test system is Candida tropicalis CGMCC 2.1975.
The subject of assay [19] is Candida albicans CGMCC 2.2086.
The test system of assay [20] is Staphylococcus aureus ATCC 25923.
The test system of assay [21] is Micrococcus luteus ATCC 4698.
Assay [22] relates to Pseudomonas aeruginosa ATCC 13388.
The test system of assay [23] is Staphylococcus aureus CCT 2580.
Assay [24] concerns Escherichia coli ATCC 11775.
The subject of assay [25] is Streptococcus mutans AU159.
For assay [26], the system named is Streptococcus pneumoniae ATCC 11733.
In assay [27] the test system is Bacillus cereus ATCC 11778.
Assay [28] has as its system Escherichia coli CCT 1457.
Assay [29] deals with Bacillus thuringiensis ATCC 10792.
Assay [30] deals with Enterococcus hirae ATCC 10541.
In assay [31] the test system is Salmonella enterica subsp. enterica serovar Typhimurium ATCC 14028.
Assay [32] relates to Staphylococcus aureus CCT 6538.
Assay [33] has as its system Salmonella enterica subsp. enterica serovar Choleraesuis ATCC 10708.
The subject of assay [34] is Enterococcus faecium CCT 5079.
The test system of assay [35] is Pseudomonas aeruginosa ATCC 15422.

Molecules are shown by their SMILES. Values after ≈ are worked out from the molar mass of the structure shown.

One may read the MIC as the smallest concentration in the dilution series that meets the test's criterion for growth inhibition. As for `CC(=O)N[C@@H](C)C(=O)N[C@@H](CCCCN)C(=O)N[C@@H](CCCCN)C(=O)N[C@@H](Cc1ccccc1)C(=O)NCC(=O)N[C@@H](CCCCN)C(=O)N[C@@H](C)C(=O)N[C@@H](Cc1ccccc1)C(=O)N[C@H](C(N)=O)C(C)C` [AKKFGKAFV], the MIC in assay [1] is at least 400 µM; in assay [2], at least 200 µM; in assay [3], at least 200 µM.

`CC(C)C[C@H](NC(=O)CN)C(=O)N[C@@H](CC(C)C)C(=O)N[C@@H](C)C(=O)N[C@@H](CO)C(=O)N[C@@H](CC(C)C)C(=O)NCC(=O)N[C@@H](CCCCN)C(=O)N[C@H](C(=O)N[C@@H](Cc1ccccc1)C(=O)NCC(=O)NCC(=O)N[C@@H](Cc1ccc(O)cc1)C(=O)N[C@@H](CC(C)C)C(=O)N[C@@H](C)C(=O)N[C@@H](CCC(=O)O)C(=O)N[C@@H](CCCCN)C(=O)N[C@@H](CC(C)C)C(=O)N[C@@H](CCCCN)C(=O)N1CCC[C@H]1C(=O)N[C@@H](CCCCN)C(=O)O)C(C)C` [GLLASLGKVFGGYLAEKLKPK] showed an MIC in assay [4] of at least 200 µM.

Take `CC[C@H](C)[C@H](NC(=O)[C@@H](NC(=O)[C@H](CO)NC(=O)[C@H](C)NC(=O)[C@@H](NC(=O)[C@H](CCCCN)NC(=O)[C@H](CCCCN)NC(=O)[C@@H](NC(=O)[C@@H](NC(=O)[C@H](CC(=O)O)NC(=O)[C@H](Cc1c[nH]c2ccccc12)NC(=O)[C@H](CC(C)C)NC(=O)CN)C(C)C)[C@@H](C)CC)C(C)C)C(C)C)C(=O)NCC(=O)NCC(=O)N[C@@H](CC(C)C)C(=O)O` [GLWDVIKKVASVIGGL]: the MIC was above 19.3 µM in [5]; above 19.3 µM in assay [6]; 4.83 µM (≈ 8 µg/mL) in [7]; 4.83 µM (≈ 8 µg/mL) in [8]; 9.67 µM (≈ 16 µg/mL) in the assay on Escherichia coli K-12; 19.3 µM (≈ 32 µg/mL) in [9]. In addition, the minimal inhibitory concentration (MIC) in [10] was 2.42 µM (≈ 4 µg/mL); in [11], above 19.3 µM; in [12] it was 9.67 µM (≈ 16 µg/mL).

As for `CC[C@H](C)[C@H](NC(=O)[C@@H](NC(=O)[C@H](CO)NC(=O)[C@H](C)NC(=O)[C@@H](NC(=O)[C@H](CCCCN)NC(=O)[C@H](CCCN=C(N)N)NC(=O)[C@@H](NC(=O)[C@@H](NC(=O)[C@H](CCCN=C(N)N)NC(=O)[C@H](Cc1c[nH]c2ccccc12)NC(=O)[C@H](CC(C)C)NC(=O)CN)C(C)C)[C@@H](C)CC)C(C)C)C(C)C)C(=O)NCC(=O)NCC(=O)N[C@@H](CC(C)C)C(=O)O` [GLWRVIRKVASVIGGL], the MIC in assay [5] came to 4.64 µM (≈ 8 µg/mL); in [6], 2.32 µM (≈ 4 µg/mL); in [7], 1.16 µM (≈ 2 µg/mL); in assay [8], 9.28 µM (≈ 16 µg/mL); with Escherichia coli K-12 it was 18.6 µM (≈ 32 µg/mL); in [9] it was 18.6 µM (≈ 32 µg/mL). Also, the values for the MIC in assay [10], in [11] and in assay [12] were 2.32 µM (≈ 4 µg/mL), above 18.6 µM and 1.16 µM (≈ 2 µg/mL), respectively.

Turning to `CC[C@H](C)[C@H](N)C(=O)N[C@@H](Cc1cnc[nH]1)C(=O)N[C@@H](Cc1cnc[nH]1)C(=O)N[C@H](C(=O)N[C@@H](Cc1cnc[nH]1)C(=O)N[C@@H](Cc1cnc[nH]1)C(=O)N[C@H](C(=O)N[C@H](C(=O)N[C@@H](Cc1cnc[nH]1)C(=O)N[C@@H](Cc1cnc[nH]1)C(=O)N[C@H](C(=O)N[C@@H](Cc1cnc[nH]1)C(=O)N[C@@H](Cc1cnc[nH]1)C(=O)N[C@H](C(=O)N[C@H](C(=O)N[C@@H](Cc1cnc[nH]1)C(=O)N[C@@H](Cc1cnc[nH]1)C(=O)N[C@H](C(=O)N[C@@H](Cc1cnc[nH]1)C(=O)N[C@@H](Cc1cnc[nH]1)C(=O)N[C@H](C(N)=O)[C@@H](C)CC)[C@@H](C)CC)[C@@H](C)CC)[C@@H](C)CC)[C@@H](C)CC)[C@@H](C)CC)[C@@H](C)CC)[C@@H](C)CC` [IHHIHHIIHHIHHIIHHIHHI], the minimal inhibitory concentration (MIC) in assay [13] was above 64 µM; in [14] it was at least 64 µM; in [15], 2 µM (≈ 5.36 µg/mL); in [16], above 64 µM; in [17], at least 64 µM; in assay [18] it was 1 µM (≈ 2.68 µg/mL). For the same molecule, the figures for the MIC in [19] and in assay [20] were 2 µM (≈ 5.36 µg/mL) and above 64 µM, respectively.

Regarding `CC[C@H](C)[C@H](N)C(=O)N[C@@H](CC(N)=O)C(=O)N[C@@H](Cc1c[nH]c2ccccc12)C(=O)N[C@@H](CC(C)C)C(=O)N[C@@H](CCCCN)C(=O)N[C@H](C(=O)N[C@@H](CCCCN)C(=O)N[C@@H](CCCCN)C(=O)N[C@@H](CCCCN)C(=O)N[C@H](C(=O)N[C@@H](C)C(=O)NCC(=O)N[C@@H](CCSC)C(=O)N[C@@H](CC(C)C)C(N)=O)C(C)C)[C@@H](C)CC` [INWLKIKKKVAGML], the MIC in assay [21] is 2.44 µM (≈ 4 µg/mL); in [22], at least 152 µM; in assay [23], 4.87 µM (≈ 8 µg/mL); in assay [13], 2.44 µM (≈ 4 µg/mL); in assay [24], 18.9 µM (≈ 31 µg/mL); in assay [25], 2.44 µM (≈ 4 µg/mL). Further, the MIC was 1.22 µM (≈ 2 µg/mL) in assay [26]; at least 152 µM in assay [27]; 4.87 µM (≈ 8 µg/mL) in [28]; 18.9 µM (≈ 31 µg/mL) in assay [6]; at least 76.1 µM in [29]; at least 38.1 µM in [9]. Also, the minimal inhibitory concentration (MIC) was 18.9 µM (≈ 31 µg/mL) in assay [30]; 18.9 µM (≈ 31 µg/mL) in assay [31]; 18.9 µM (≈ 31 µg/mL) in assay [32]; at least 304 µM in assay [33]; 4.87 µM (≈ 8 µg/mL) in assay [34]; 1.22 µM (≈ 2 µg/mL) in [20]. The molecule further returned an MIC in assay [35] of at least 76.1 µM.

As for `CC[C@H](C)[C@H](NC(=O)[C@H](CC(C)C)NC(=O)[C@@H]1CCCN1C(=O)[C@H](CC(C)C)NC(=O)[C@H](CCCCN)NC(=O)[C@H](CCCCN)NC(=O)[C@H](Cc1ccccc1)NC(=O)[C@H](CC(C)C)NC(=O)[C@H](CCCCN)NC(=O)[C@H](Cc1c[nH]c2ccccc12)NC(=O)[C@@H](N)CCCCN)C(=O)NCC(=O)N[C@@H](CCCN=C(N)N)C(=O)N[C@H](C(=O)N[C@@H](CC(C)C)C(N)=O)C(C)C` [KWKLFKKLPLIGRVL], the MIC in assay [4] was at least 100 µM.
